Data from patent US9399626B2, “2-thiopyrimidinones” (Pfizer Inc., priority 2011, dated 2016).
Structures can show the parent of a compound that is named as a salt.

target: T1, MPO (purified from human polynuclear leukocytes) (Homo sapiens, UniProt P05164); assay: MPO Amplex Red Activity Assay; type: biochemical; details: Table 1, 2 μM H2O2, pH 7.4
T1 construct: purified from human polynuclear leukocytes; purchased Calbiochem/EMD Biosciences; host or cells: human polynuclear leukocytes (natural source)
T1 sequence (P05164 279-745 limits assumed): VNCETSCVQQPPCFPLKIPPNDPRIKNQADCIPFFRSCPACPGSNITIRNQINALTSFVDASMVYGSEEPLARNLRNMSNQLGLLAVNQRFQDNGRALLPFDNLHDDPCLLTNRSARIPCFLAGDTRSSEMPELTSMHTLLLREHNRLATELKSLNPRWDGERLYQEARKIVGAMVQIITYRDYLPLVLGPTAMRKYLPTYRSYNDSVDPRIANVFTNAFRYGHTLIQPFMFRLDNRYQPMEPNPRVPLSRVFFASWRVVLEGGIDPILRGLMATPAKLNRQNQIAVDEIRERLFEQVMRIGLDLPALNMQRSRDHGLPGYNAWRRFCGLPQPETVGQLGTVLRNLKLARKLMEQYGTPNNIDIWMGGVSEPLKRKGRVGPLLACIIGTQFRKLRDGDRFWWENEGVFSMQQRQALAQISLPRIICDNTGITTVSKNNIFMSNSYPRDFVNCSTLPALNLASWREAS
T1 sequence (P05164 165-273 limits assumed): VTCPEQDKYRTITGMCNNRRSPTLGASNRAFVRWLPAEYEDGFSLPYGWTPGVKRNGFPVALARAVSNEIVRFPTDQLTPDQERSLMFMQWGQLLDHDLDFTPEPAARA
Protocol: MPO Amplex Red Activity Assay.
MPO peroxidase activity was measured by monitoring the formation of resorufin generated from the oxidation of Amplex Red (10-Acetyl-3,7-dihydroxyphenoxazine) (Invitrogen, Carlsbad, Calif.) by MPO (Gomes, Fernandes et al. 2005). Assay mixtures (100 μL total volume) contained 50 mM NaPi pH 7.4, 150 mM NaCl, 1 mM DTPA (diethylenetriaminepentaacetic acid), 2% DMSO, 2 μM H2O2, 30 μM Amplex Red and the reaction was initiated by the addition of […] (purified from human polynuclear leukocytes and purchased from Calbiochem/EMD Biosciences, Gibbstown, N.J.). All assays were performed in 96-well, half-area, black, nonbinding surface, polystyrene plates (Corning) and the production of resorufin (excitation 530 nm, emission 580 nm) was monitored every 20 sec on a Spectramax M2 Microplate Spectrophotometer (Molecular Devices, Palo Alto, Calif.) equipped with Softmax Pro software (Molecular Devices, Palo Alto, Calif.). Reactions to determine the background reaction rate consisted of all assay components and 4 μL of 500 unit/mL bovine catalase (Sigma) in 50 mM KPi pH 7.0. The background rate was subtracted from each reaction progress curve. All data was analyzed using non-linear regression analysis in Microsoft Excel and Kaleidagraph (Synergy Software).
To determine inhibitor potency (kinact/KI) against MPO, the first 600 sec of the reaction progress curves were fit to equation 1, where Vo is the initial rate in RFU/sec and t is time in seconds, to obtain the first order rate constant for enzyme inactivation (kobs) at each inhibitor concentration.
[formula] Equation 1 is a variation of the standard equation for slow binding inhibition where the steady state velocity (Vs) is set to zero. Each kobs value was corrected for auto-inactivation of the enzyme by subtracting the kobs value for the uninhibited reaction. The corrected kobs values were then plotted versus inhibitor concentration ([I]) and fit to equation 2
[formula] where kinact is the maximal rate of inactivation and KI is the inhibitor concentration that yields half the rate of maximal inactivation (Copeland 2005).
Table 1 and (1A) below provides the myeloperoxidase inhibitory activity for the Examples below in accordance with the above-described assay.

| SMILES | MPO kinact/Ki |
| --- | --- |
| COCCn1c(-c2ccc(OC)nc2OC)cc(=O)[nH]c1=S [Example 332, 6-(2,6-dimethoxypyridin-3-yl)-1-(2-methoxyethyl)-2-thioxo-2,3-dihydropyrimidin-4(1H)-one] | 3270 1/s per M |
| COCCn1c(-c2cccc(Cl)c2)cc(=O)[nH]c1=S [Example 300, 6-(3-chlorophenyl)-1-(2-methoxyethyl)-2-thioxo-2,3-dihydropyrimidin-4(1H)-one] | 2460 1/s per M |
| NC(=O)Cn1c(-c2ccccc2OC(F)(F)F)cc(=O)[nH]c1=S [Example 208, 2-{4-oxo-2-thioxo-6-[2-(trifluoromethoxy)phenyl]-3,4-dihydropyrimidin-1(2H)-yl}acetamide] | 3760 1/s per M |
| COc1ccc(-c2cc(=O)[nH]c(=S)n2CCOC(C)C)cc1 [Example 172, 1-(2-isopropoxyethyl)-6-(4-methoxyphenyl)-2-thioxo-2,3-dihydropyrimidin-4(1H)-one] | 2950 1/s per M |
| COc1ccc(-c2cc(=O)[nH]c(=S)n2CCN)c(Cl)c1 [Example 61, 1-(2-aminoethyl)-6-(2-chloro-4-methoxyphenyl)-2-thioxo-2,3-dihydropyrimidin-4(1H)-one hydrochloride] | 3530 1/s per M |
| COc1ccc(-c2cc(=O)[nH]c(=S)n2CCCCCO)c(OC)c1 [Example 225, 6-(2,4-dimethoxyphenyl)-1-(5-hydroxypentyl)-2-thioxo-2,3-dihydropyrimidin-4(1H)-one] | 5490 1/s per M |
| COc1ccc(-c2cc(=O)[nH]c(=S)n2CC(C)O)c(OC)c1 (stereo not shown) [Example 179, 6-(2,4-dimethoxyphenyl)-1-(2-hydroxypropyl)-2-thioxo-2,3-dihydropyrimidin-4(1H)-one] | 2790 1/s per M |
| COc1ccc(Cl)cc1-c1cc(=O)[nH]c(=S)n1C[C@@H]1CCCN1 [Example 123, 6-(5-chloro-2-methoxyphenyl)-1-[(2S)-pyrrolidin-2-ylmethyl]-2-thioxo-2,3-dihydropyrimidin-4(1H)-one hydrochloride] | 3780 1/s per M |
| COc1cc(OC)c(-c2cc(=O)[nH]c(=S)n2CCCN)cc1OC [Example 125, 1-(3-aminopropyl)-2-thioxo-6-(2,4,5-trimethoxyphenyl)-2,3-dihydropyrimidin-4(1H)-one hydrochloride] | 10600 1/s per M |
| NCCCn1c(-c2ccc3c(c2)OCCO3)cc(=O)[nH]c1=S [Example 76, 1-(3-aminopropyl)-6-(2,3-dihydro-1,4-benzodioxin-6-yl)-2-thioxo-2,3-dihydropyrimidin-4(1H)-one hydrochloride] | 4190 1/s per M |
| COCCn1c(-c2cccc(S(=O)(=O)N(C)C)c2)cc(=O)[nH]c1=S [Example 348, 3-[3-(2-methoxyethyl)-6-oxo-2-thioxo-1,2,3,6-tetrahydropyrimidin-4-yl]-N,N-dimethylbenzenesulfonamide] | 1400 1/s per M |
| COc1ncc(Cl)cc1-c1cc(=O)[nH]c(=S)n1CC(N)=O [Example 145, 2-[6-(5-chloro-2-methoxypyridin-3-yl)-4-oxo-2-thioxo-3,4-dihydropyrimidin-1(2H)-yl]acetamide] | 5080 1/s per M |
| COCCn1c(-c2ccc(OC)c(OC)c2)cc(=O)[nH]c1=S [Example 331, 6-(3,4-dimethoxyphenyl)-1-(2-methoxyethyl)-2-thioxo-2,3-dihydropyrimidin-4(1H)-one] | 6330 1/s per M |
| COc1ccc(-c2cc(=O)[nH]c(=S)n2Cc2ccncc2)c(OC)c1 [Example 232, 6-(2,4-dimethoxyphenyl)-1-(pyridin-4-ylmethyl)-2-thioxo-2,3-dihydropyrimidin-4(1H)-one] | 4520 1/s per M |
| COc1ccc(-c2cc(=O)[nH]c(=S)n2CCNC(=O)[C@@H](C)N)c(OC)c1 [Example 255, N-{2-[6-(2,4-dimethoxyphenyl)-4-oxo-2-thioxo-3,4-dihydropyrimidin-1(2H)-yl]ethyl}-D-alaninamide trifluoroacetate] | 3550 1/s per M |
| COCCn1c(-c2cc3c(cc2OC)CCCC3)cc(=O)[nH]c1=S [Example 341, 1-(2-methoxyethyl)-6-(3-methoxy-5,6,7,8-tetrahydronaphthalen-2-yl)-2-thioxo-2,3-dihydropyrimidin-4(1H)-one] | 14300 1/s per M |
| COc1ccccc1-c1cc(=O)[nH]c(=S)n1CCCN=C(N)N [Example 103, 2-{3-[6-(2-methoxyphenyl)-4-oxo-2-thioxo-3,4-dihydropyrimidin-1(2H)-yl]propyl} guanidine] | 41800 1/s per M |
| COc1cc(OC)c(-c2cc(=O)[nH]c(=S)n2CCCN=C(N)N)cc1OC [Example 141, 2-{3-[4-oxo-2-thioxo-6-(2,4,5-trimethoxyphenyl)-3,4-dihydropyrimidin-1(2H)-yl]propyl} guanidine trifluoroacetate] | 10500 1/s per M |
| COc1cccc(-c2cc(=O)[nH]c(=S)n2CCO)c1 [Example 155, 1-(2-hydroxyethyl)-6-(3-methoxyphenyl)-2-thioxo-2,3-dihydropyrimidin-4(1H)-one] | 8090 1/s per M |
| COc1cccc(OC)c1-c1cc(=O)[nH]c(=S)n1C [Example 157, 6-(2,6-dimethoxyphenyl)-1-methyl-2-thioxo-2,3-dihydropyrimidin-4(1H)-one] | 7320 1/s per M |
| COc1cc(OC)c(-c2cc(=O)[nH]c(=S)n2CC(N)=O)cc1C [Example 146, 2-[6-(2,4-dimethoxy-5-methylphenyl)-4-oxo-2-thioxo-3,4-dihydropyrimidin-1(2H)-yl]acetamide] | 8950 1/s per M |
| COCCn1c(-c2cc(OC)c(OC)c(OC)c2)cc(=O)[nH]c1=S [Example 342, 1-(2-methoxyethyl)-2-thioxo-6-(3,4,5-trimethoxyphenyl)-2,3-dihydropyrimidin-4(1H)-one] | 817 1/s per M |
| COc1ncc(C)cc1-c1cc(=O)[nH]c(=S)n1CCO [Example 150, 1-(2-hydroxyethyl)-6-(2-methoxy-5-methylpyridin-3-yl)-2-thioxo-2,3-dihydropyrimidin-4(1H)-one] | 8970 1/s per M |
| COCCn1c(-c2ccccc2Cl)cc(=O)[nH]c1=S [Example 299, 6-(2-chlorophenyl)-1-(2-methoxyethyl)-2-thioxo-2,3-dihydropyrimidin-4(1H)-one] | 2060 1/s per M |
| O=c1cc(-c2ccc3c(c2)CCO3)n(CCO)c(=S)[nH]1 [Example 15, 6-(2,3-dihydro-1-benzofuran-5-yl)-1-(2-hydroxyethyl)-2-thioxo-2,3-dihydropyrimidin-4(1H)-one] | 5420 1/s per M |
| COCCn1c(-c2ccc3c(c2)OCO3)cc(=O)[nH]c1=S [Example 309, 6-(1,3-benzodioxol-5-yl)-1-(2-methoxyethyl)-2-thioxo-2,3-dihydropyrimidin-4(1H)-one] | 3160 1/s per M |

same assay, conditions: Table 1A, 2 μM H2O2, pH 7.4

| SMILES | MPO kinact/Ki |
| --- | --- |
| COc1ccc(OC)c(-c2cc(=O)[nH]c(=S)n2CCNC(=O)CN)c1 [Example 352, N-{2-[6-(2,5-dimethoxyphenyl)-4-oxo-2-thioxo-3,4-dihydropyrimidin-1(2H)-yl]ethyl}glycinamide] | 6720 1/s per M |
| COc1ccc(-c2cc(=O)[nH]c(=S)n2CCCN)c(OCCO)c1 [Example 402, 1-(3-aminopropyl)-6-[2-(2-hydroxyethoxy)-4-methoxyphenyl]-2-thioxo-2,3-dihydropyrimidin-4(1H)-one] | 4810 1/s per M |
